Assay: Investigations of solubility of IPN in different solvents
Assay type: physicochemical
Procedure: Investigations of Solubility of IPN in Different Solvents
At 60° C., the solubility of IPN in mesitylene or pseudocumene is in each case below 10% by weight.

Which results are given for N#Cc1cccc(C#N)c1 [IPN, 1,3-dicyanobenzene]?
solubility of IPN in NMP (at 60° C.): approx. 26 % by weight; solubility of IPN in NMP (at 90° C.): approx. 41 % by weight; solubility of IPN in mesitylene (at 60° C.): below 10 % by weight; solubility of IPN in mesitylene (at 90° C.): 12 % by weight; solubility of IPN in pseudocumene (at 60° C.): below 10 % by weight; solubility of IPN in pseudocumene (at 90° C.): 20 % by weight
